# Data published in patent US20080286219A1, “Hydroquinone derivative skin brightening compounds” (priority 2007, published 2008).
# Target: Mushroom Tyrosinase (Sigma T3824)
# Assay: General in vitro tyrosinase inhibition assay (L-Dopa oxidation to dopachrome)
# Type: biochemical
# Details: 0.5 mM L-Dopa, pH 7.0, 30° C., 475 nm, 18 Units Mushroom Tyrosinase
row,EC50,SMILES
1,10 µM,OCCCCCCSc1cc(O)ccc1O [Compound X29876-162]
2,9410 µM,O=C(O)CSc1cc(O)ccc1O [Compound X29876-163]
3,3280 µM,CCOC(=O)CSc1cc(O)ccc1O [Compound X29876-169]
4,310 µM,CC(=O)C(C)Sc1cc(O)ccc1O (stereo not shown) [Compound X29876-181]
5,200 µM,Oc1ccc(O)c(SCc2cccs2)c1 [Compound X29876-198]
6,620 µM,"Oc1ccc(O)cc1 [Hydroquinone, hydroquinone]"

# Second part, the compound before the results:
row,SMILES,EC50
1,CC(=O)N[C@@H](CSc1cc(O)ccc1O)C(=O)O [Compound X29876-018],4850 µM
2,NC(CCC(=O)NC(CSc1cc(O)ccc1O)C(=O)NCC(=O)O)C(=O)O (stereo not shown) [Compound X29876-019],10400 µM
3,N[C@@H](CSc1cc(O)ccc1O)C(=O)O [Compound X29876-063],20 µM
4,CCOC(=O)[C@@H](N)CSc1cc(O)ccc1O [Compound X29876-064],250 µM
5,CC(C)(Sc1cc(O)ccc1O)C(N)C(=O)O (stereo not shown) [Compound X29876-144],70 µM
6,COC(=O)[C@@H](N)CSc1cc(O)ccc1O [Compound X29876-145],130 µM
7,N[C@H](CSc1cc(O)ccc1O)C(=O)O [Compound X29876-147],30 µM
8,C[C@H](CSc1cc(O)ccc1O)C(=O)N1CCC[C@H]1C(=O)O [Compound X29876-155],12200 µM
9,Cc1nc(Sc2cc(O)ccc2O)sc1CC(=O)O [Compound X29876-160],520 µM

# Same assay, conditions: compared to HQ
row,fold more potent than HQ,SMILES
1,about 25 fold,N[C@@H](CSc1cc(O)ccc1O)C(=O)O [Compound X29876-063]
